These results are taken from patent US8268854B2, “Aza-beta-carbolines and methods of using same” (The UWM Research Foundation, Inc., priority 2008, dated 2012).

In one assay the test system is GABAA receptor. Kind of assay: PDSP radioligand binding assay (Example 6). As to conditions: Example 6, written in present tense. How it is done:
Primary and secondary radioligand binding assays are performed. In general, the primary assay is run at very high ligand (compound) concentration as a broad screen to determine whether a compound binds to a particular receptor. If greater than 50% inhibition at 10 μM (high concentration of compound) at a particular receptor is determined, a secondary assay is performed on that receptor. Data from the secondary assay is the binding affinity (Ki value).
A solution of the compound to be tested is prepared as a 1 mg/ml stock in Standard Binding Buffer or dimethyl sulfoxide (DMSO) according to its solubility. A similar stock of a reference compound (positive control) is also prepared. […]
The 250 μL reactions are incubated at room temperature and shielded from light (to prevent photolysis of light-sensitive ligands) for 1.5 hours, then harvested by rapid filtration onto Whatman GF/B glass fiber filters pre-soaked with 0.3% polyethyleneimine using a 96-well Brandel harvester. […] The tubes are capped, labeled, and counted by liquid scintillation counting. For higher throughput assays, bound radioactivity is harvested onto 0.3% polyethyleneimine-treated, 96-well filter mats using a 96-well Filtermate harvester. The filter mats are dried, then scintillant is melted onto the filters, and the radioactivity retained on the filters is counted in a Microbeta scintillation counter. […]

Assay [1] deals with T1, GABAA receptor α1 subtype with β2 and γ2 subunits (Homo sapiens, UniProt P14867+P18507).
T1 construct: expressed in transfected cells; host or cells: HEKT cell line, transient transfection with Fugene 6
The experiment in a line: Competition binding assay with [3H]flunitrazepam. As to conditions: [3H]flunitrazepam, α1β2γ2, HEKT cells; read-out: GABAA RECEPTOR BINDING α1. The text has this:
(§1) Bound radioactivity is quantified by liquid scintillation counting.

The target in assay [2] is T2, GABAA receptor α2 subtype with β2 and γ2 subunits (Homo sapiens, UniProt P18507+P47869).
T2 construct: expressed in transfected cells; host or cells: HEKT cell line, transient transfection with Fugene 6
Kind of assay: Competition binding assay with [3H]flunitrazepam. As to conditions: [3H]flunitrazepam, α2β2γ2, HEKT cells; read-out: GABAA RECEPTOR BINDING α2.
From the text: as §1

For assay [3], the target named is T3, GABAA receptor α5 subtype with β2 and γ2 subunits (Homo sapiens, UniProt P18507+P31644).
T3 construct: expressed in transfected cells; host or cells: HEKT cell line, transient transfection with Fugene 6
The experiment in a line: Competition binding assay with [3H]flunitrazepam. As to conditions: [3H]flunitrazepam, α5β2γ2, HEKT cells; read-out: GABAA RECEPTOR BINDING α5.
From the text: as §1

For assay [4], the target named is T4, GABAA receptor α3 subtype with β2 and γ2 subunits (Homo sapiens, UniProt P18507+P34903).
T4 construct: expressed in transfected cells; host or cells: HEKT cell line, transient transfection with Fugene 6
The experiment in a line: Competition binding assay with [3H]flunitrazepam. As to conditions: [3H]flunitrazepam, α3β2γ2, HEKT cells; read-out: GABAA RECEPTOR BINDING α3.
From the text: as §1

For assay [5], the system named is BzR/GABAa-ergic receptors. As to conditions: Example 8, written in present tense.

Turning to `CC(C)(C)OC(=O)c1cc2c(cn1)[nH]c1cnccc12` [Compound 3, Tert-Butyl pyridine[4′,5′-5,4]pyrrolo[2,3-c]pyridine-3-carboxylate], the “binding to GABAA receptor (in words)” value with GABAA receptor is “shown to bind to GABAA receptor”. Further, the Ki in assay [1] was determined as 2.9 nM; in assay [2], 2.5 nM; in assay [3], 3.7 nM; in assay [4] it was 3.4 nM.

As for “tert-Butyl pyridine[4′,5′-4,5]pyrrolo[3,2-c]pyridine-8-carboxylate [Compound 1]”, the “binding to the BzR/GABAa-ergic receptors (in words)” value in assay [5] was “potently binds”. Also, the “binding to GABAA receptor (in words)” value in the assay on GABAA receptor is on record as “shown to bind to GABAA receptor”.
